Results on 3 compounds are retold here after patent publication US8609719B2, “Propargylated aminoindans, processes for preparation, and uses thereof” (priority 2006, dated 2013).

What all share (type): biochemical
One experiment has as its target T1, BuChE from human serum (Homo sapiens, UniProt P06276).
T1 construct: BuChE from human serum (C-9971); purchased Sigma-Aldrich Israel C-9971; host or cells: purified from human serum
Kind of experiment: Inhibition of butyrylcholinesterase activity in vitro (Ellman, stopped time assay). Details: ki (bimolecular rate constant): unit not given here. On the procedure: BuChE from human serum (C-9971), butyrylthiocholine iodide (BuTh, B3253), bovine serum albumin (BSA, A-2153) 5,5′-dithiobis(2-nitrobenzoic acid) (DTNB, D8130) were obtained from Sigma-Aldrich Israel. BuChE was dissolved in phosphate buffer pH 8.0 containing 0.01% sodium azide (NaAz) and 1 mM EDTA and diluted to give a concentration of 35.9 units/ml. This solution was divided into aliquots of 0.5 ml, which were stored at −70° C. until use.
The inhibitory activity against BuChE was determined by the method of Ellmann et al. (Biochemical Pharmacology, 1961 (7) 88-95) using BuTh as a substrate. To characterize the carbamoylation step, a traditional stopped time assay was performed, in which BuChE was incubated at 37° C. with a minimum of 5 different concentrations of inhibitor in the assay buffer, and aliquots were transferred to an ELISA multiscan microplate reader (Labsystems) at various times for the determination of residual BuChE activity, with Ascent PC® software. The rate of reaction was measured at 412λ at 37° C. in 0.2 ml wells containing […] 0.023 units per ml, DTNB 0.4-0.5 mM, AcTh 0.50 or 1 mM and BSA (0.05%) in 50 mM phosphate buffer as described above. For all compounds measurements were made every 2 min for 15 min and then every 15 min for 3 hr.
The inhibition of BuChE by carbamates involves the formation of a reversible complex (EOH•CX), followed by carbamoylation of the enzyme to form (EOC) and a leaving group (HX). The carbamoylated enzyme is then hydrolyzed by water to regenerate the free enzyme (EOH). The formation of the reversible complex is represented by the equilibrium constant: KD. For the carbamoylation phase of the inhibition process the unimolecular rate constant is represented by kmax, and the bimolecular rate constant by ki.
For orientation: DTNB colorimetry detects thiols as they appear.

The target of the next experiment is T2, MAO-B (Rattus norvegicus, UniProt P19643).
T2 construct: from tissue; host or cells: brain, liver and intestine (duodenum) of dosed rats
T2 sequence (P19643 1-520): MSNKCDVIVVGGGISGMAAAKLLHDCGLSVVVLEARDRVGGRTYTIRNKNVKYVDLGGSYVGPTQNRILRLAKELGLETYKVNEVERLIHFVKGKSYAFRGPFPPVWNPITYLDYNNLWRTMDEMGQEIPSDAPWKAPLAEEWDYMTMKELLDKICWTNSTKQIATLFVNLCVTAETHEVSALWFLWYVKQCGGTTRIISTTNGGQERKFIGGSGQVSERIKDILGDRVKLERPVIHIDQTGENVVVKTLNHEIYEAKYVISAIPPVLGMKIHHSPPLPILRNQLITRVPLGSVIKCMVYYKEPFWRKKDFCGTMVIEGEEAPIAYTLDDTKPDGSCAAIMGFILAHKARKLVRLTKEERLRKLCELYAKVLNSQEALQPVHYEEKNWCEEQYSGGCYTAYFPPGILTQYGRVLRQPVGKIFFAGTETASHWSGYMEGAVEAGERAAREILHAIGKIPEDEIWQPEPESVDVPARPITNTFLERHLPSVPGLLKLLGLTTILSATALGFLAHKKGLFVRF
The experiment is described as follows: Inhibition of MAO activity in vitro (PEA substrate). On the procedure: The MAO enzyme source was a homogenate of rat brain in 0.3M sucrose. The homogenate was diluted appropriately, and pre-incubated with serial dilutions of test compounds—diluted in phosphate buffer containing clogyline when 2-phenylethylamine (PEA) is the substrate, and diluted in phosphate buffer containing selegiline when 5-hydroxytryptamine (5-HT) is the substrate—for 60 minutes at 37° C. 14C-Labeled substrates (PEA for MAO-B determination and 5-HT for MAO-A determination) were then added, and the incubation continued for a further 20 minutes (PEA) or 30 minutes (5-HT). Substrate concentrations used were 10 μM (PEA) and 100 uM (5-HT). Enzyme concentration was chosen so that not more than 10% of the substrate was metabolized during the course of the reaction. Deaminated products were extracted into toluene-ethyl acetate (1:1 v/v) containing 0.4% (w/v) 2,5-diphenyloxazole (ppo) prior to determination by liquid scintillation counting. Radioactivity in the eluate indicated the production of neutral and acidic metabolites formed as a result of MAO activity. Activity of MAO in the sample was expressed as a percentage of control activity in the absence of inhibitor after subtraction of appropriate blank values. The activity determined using PEA as substrate is referred to as MAO-B, and that determined using 5-HT as MAO-A.
Concentrations of each inhibitor producing 50% inhibition of substrate metabolism (IC50) were calculated from the inhibition curves, and are shown in Table 1.

Another experiment deals with T3, Recombinant human AChE (Homo sapiens, UniProt P22303).
T3 construct: purchased Sigma-Aldrich Israel C-1682
Kind of experiment: Inhibition of acetylcholinesterase activity in vitro (Ellman, stopped time assay). More on the design: ki (bimolecular rate constant): unit not given here. On the procedure: Recombinant human AChE (C-1682), acetylthiocholine iodide (AcTh, A5771), bovine serum albumin (BSA, A-2153), and 5,5′-dithiobis(2-nitrobenzoic acid) (DTNB, D8130) were obtained from Sigma-Aldrich Israel. […] AChE was dissolved in phosphate buffer pH 8.0 containing 0.01% sodium azide NaAz and 1 mM EDTA and diluted to give a concentration of 15 units/ml. This solution was divided into aliquots of 0.5 ml, which were stored at −70° C. until use.
The inhibitory activity against AChE was determined by the method of Ellmann et al. (Biochemical Pharmacology, 1961 (7) 88-95) using AcTh as a substrate. To characterize the carbamoylation step, a traditional stopped time assay was performed, in which AChE was incubated at 37° C. with a minimum of 5 different concentrations of inhibitor in the assay buffer, and aliquots were transferred to an ELISA multiscan microplate reader (Labsystems) at various times for the determination of residual AChE activity, with Ascent PC software. The rate of reaction was measured at 412λ at 37° C. in 0.2 ml wells containing AChE 0.023 units per ml, DTNB 0.4-0.5 mM, AcTh 0.50 or 1 mM and BSA (0.05%) in 50 mM phosphate buffer as described above. Measurements were made every 5 min for up to 5 hours.
The inhibition of AChE by carbamates involves the formation of a reversible complex (EOH•CX), followed by carbamoylation of the enzyme to form (EOC) and a leaving group (HX). The carbamoylated enzyme is then hydrolyzed by water to regenerate the free enzyme (EOH).
The formation of the reversible complex is represented by the equilibrium constant: KD. For the carbamoylation phase of the inhibition process the unimolecular rate constant is represented by kmax, and the bimolecular rate constant by ki.

Where a name gives a salt, the structure may show the parent alone. Read-outs that look alike come from different tables or passages of the source.

T1 sequence (P06276 29-602): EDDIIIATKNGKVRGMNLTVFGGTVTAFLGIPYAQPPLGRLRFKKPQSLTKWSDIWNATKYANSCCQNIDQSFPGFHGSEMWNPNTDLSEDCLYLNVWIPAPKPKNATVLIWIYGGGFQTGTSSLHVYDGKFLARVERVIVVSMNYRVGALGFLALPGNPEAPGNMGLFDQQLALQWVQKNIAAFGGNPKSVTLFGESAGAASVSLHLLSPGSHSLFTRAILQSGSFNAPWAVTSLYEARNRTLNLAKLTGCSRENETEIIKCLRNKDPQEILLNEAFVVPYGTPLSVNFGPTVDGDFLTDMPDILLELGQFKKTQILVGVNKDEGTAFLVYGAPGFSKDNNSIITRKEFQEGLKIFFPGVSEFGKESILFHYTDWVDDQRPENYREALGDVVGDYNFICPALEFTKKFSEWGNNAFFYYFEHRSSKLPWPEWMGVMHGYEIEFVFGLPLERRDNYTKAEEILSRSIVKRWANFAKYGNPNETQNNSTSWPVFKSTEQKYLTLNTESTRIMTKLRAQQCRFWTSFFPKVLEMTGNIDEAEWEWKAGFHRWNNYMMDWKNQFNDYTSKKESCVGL
T3 sequence (P22303 32-614): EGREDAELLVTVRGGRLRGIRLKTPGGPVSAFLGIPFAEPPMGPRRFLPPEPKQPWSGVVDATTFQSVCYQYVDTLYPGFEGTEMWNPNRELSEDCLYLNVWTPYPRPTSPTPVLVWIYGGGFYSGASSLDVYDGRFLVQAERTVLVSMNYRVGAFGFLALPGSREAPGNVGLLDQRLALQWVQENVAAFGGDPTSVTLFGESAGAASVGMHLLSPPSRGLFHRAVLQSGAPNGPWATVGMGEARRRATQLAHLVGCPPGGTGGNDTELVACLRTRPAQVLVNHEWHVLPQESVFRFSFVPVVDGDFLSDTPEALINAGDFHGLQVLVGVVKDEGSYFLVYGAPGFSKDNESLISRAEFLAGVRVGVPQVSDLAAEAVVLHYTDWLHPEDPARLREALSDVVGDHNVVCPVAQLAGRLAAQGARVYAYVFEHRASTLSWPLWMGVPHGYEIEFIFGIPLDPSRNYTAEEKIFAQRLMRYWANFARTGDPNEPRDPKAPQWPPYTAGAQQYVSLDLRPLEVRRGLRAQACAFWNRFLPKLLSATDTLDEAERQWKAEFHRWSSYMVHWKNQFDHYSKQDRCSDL

Usually Kd stands for the free concentration of one partner at which half of the binding sites on the other are occupied at equilibrium, for simple one-to-one binding. Usually IC50 stands for the concentration needed to halve the response being measured. For `C#CCN[C@@H]1CCc2ccc(OC(=O)N(CC)CO)cc21` [R-HCPAI, Ethyl-hydroxymethyl-carbamic acid 3-R-(prop-2-ynylamino)-indan-5-yl ester fumarate (2:1)], the “inhibition of butyrylcholinesterase, in words” value against BuChE from human serum is listed as “weak inhibitor”. The “ki (bimolecular rate constant)” value on BuChE from human serum (BuChE, 37° C.) is given as 0.936 ± 0.06; at Recombinant human AChE (AChE, 37° C.), 0.106 ± 0.008. Also, the “kmax (unimolecular carbamoylation rate constant)” value (“kmax” below) is 0.104 ± 0.043 min⁻¹ at BuChE from human serum (BuChE, 37° C.) and 0.033 min⁻¹ at Recombinant human AChE (AChE, 37° C.). In addition, the Kd on BuChE from human serum (BuChE, 37° C., read-out: KD (equilibrium constant of reversible complex)) was 111 ± 50 µM; at Recombinant human AChE (AChE, 37° C., read-out: KD (equilibrium constant of reversible complex)), 306 µM. Moreover, at MAO-B (rat brain homogenate, PEA 10 μM, 60 minutes pre-incubation at 37° C., read-out: IC50 for MAO-B inhibition), the concentration for half-maximal inhibition (IC50) was found to be 599 µM. Further, on Recombinant human AChE, the “inhibition of acetylcholinesterase, in words” value is recorded as “weak inhibitor”.
In the case of `CNC(=O)Oc1ccc2c(c1)[C@H](N)CC2` [R-MCAI, Methyl-carbamic acid 3-R-amino-indan-5-yl ester hydrochloride], at BuChE from human serum, the Kd was found to be 36 ± 5 µM and the “inhibition of butyrylcholinesterase, in words” value is recorded as “potent inhibitors”. Moreover, on BuChE from human serum (BuChE, 37° C.), the “ki (bimolecular rate constant)” value stood at 14.5 ± 0.42 and the “kmax” value turned out to be 0.516 ± 0.050 min⁻¹. This compound gave an IC50 against MAO-B above 1000 µM. Besides, on Recombinant human AChE, the “inhibition of acetylcholinesterase, in words” value was “potent inhibitors”. Moreover, at Recombinant human AChE (AChE, 37° C.), the “kmax” value was 1.63 min⁻¹.
Regarding `C#CCN[C@@H]1CCc2ccc(OC(=O)NC)cc21` [R-MCPAI, Methyl-carbamic acid 3-R-(prop-2-ynylamino)-indan-5-yl ester hydrochloride], on BuChE from human serum, binding was characterised by a dissociation constant (Kd) of 21 ± 2 µM and the “inhibition of butyrylcholinesterase, in words” value is listed as “potent inhibitors”. Moreover, on BuChE from human serum (BuChE, 37° C.), the “ki (bimolecular rate constant)” value is recorded as 31.3 ± 2.0 and the “kmax” value came out at 0.65 ± 0.03 min⁻¹. The IC50 against MAO-B was 42 µM. Also, the “inhibition of acetylcholinesterase, in words” value at Recombinant human AChE was “potent inhibitors”. On Recombinant human AChE (AChE, 37° C.), the “kmax” value was 0.435 min⁻¹.
